Measured values from ChEMBL document CHEMBL1143662 (Bioorg Med Chem, 2007).

How the values were obtained:
[1] = target: T1, Melatonin receptor type 1A (Homo sapiens, UniProt P48039); assay: Displacement of 2-[125I]iodomelatonin from human cloned MT1 receptor expressed in […] cells; assay type: cell-based
[2] = target: T1, Melatonin receptor type 1A; assay: Intrinsic activity at human cloned MT1 receptor expressed in […] cells by [35S]GTP-gamma-S binding assay relative to melatonin; assay type: functional, cell-based
[3] = target: T2, Melatonin receptor type 1B (Homo sapiens, UniProt P49286); assay: Displacement of 2-[125I]iodomelatonin from human cloned MT2 receptor expressed in […] cells; assay type: cell-based
T2 sequence (P49286 whole entry): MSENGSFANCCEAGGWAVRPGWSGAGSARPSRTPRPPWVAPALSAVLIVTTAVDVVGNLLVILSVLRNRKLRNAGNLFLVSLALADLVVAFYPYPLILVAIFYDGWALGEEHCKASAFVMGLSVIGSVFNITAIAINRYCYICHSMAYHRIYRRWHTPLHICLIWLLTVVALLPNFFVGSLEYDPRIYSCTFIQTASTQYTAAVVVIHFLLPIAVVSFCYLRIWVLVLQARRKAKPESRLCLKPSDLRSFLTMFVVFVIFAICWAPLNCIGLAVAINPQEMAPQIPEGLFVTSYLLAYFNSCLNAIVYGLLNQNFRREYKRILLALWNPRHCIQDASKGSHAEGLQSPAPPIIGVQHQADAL

[4] = target: T3, Melatonin receptor type 1B (Homo sapiens) (UniProt P49286); assay: Intrinsic activity at human cloned MT2 receptor expressed in […] cells by [35S]GTP-gamma-S binding assay relative to melatonin; assay type: functional, cell-based
T3 sequence (whole entry): T2 sequence (P49286 whole entry)

T1 sequence (P48039 whole entry): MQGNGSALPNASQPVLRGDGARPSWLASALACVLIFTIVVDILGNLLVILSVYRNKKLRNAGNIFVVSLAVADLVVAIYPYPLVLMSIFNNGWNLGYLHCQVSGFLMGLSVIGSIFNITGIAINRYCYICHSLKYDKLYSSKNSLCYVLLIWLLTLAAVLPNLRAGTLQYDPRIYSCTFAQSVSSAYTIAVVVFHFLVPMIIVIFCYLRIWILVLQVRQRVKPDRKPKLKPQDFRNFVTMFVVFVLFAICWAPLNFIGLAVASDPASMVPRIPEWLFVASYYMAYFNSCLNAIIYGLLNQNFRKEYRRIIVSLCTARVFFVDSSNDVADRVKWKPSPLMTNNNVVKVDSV

Compound	Ki [1] [nM]	Intrinsic activity [2]	Ki [3] [nM]	Intrinsic activity [4]
CCCCCOC(=O)c1[nH]c2ccc(OC)cc2c1CCNC(C)=O	70.1	0.06	4.8	0.23
COc1ccc2[nH]c(C(=O)OCCCCCCCCOC(=O)c3[nH]c4ccc(OC)cc4c3CCNC(C)=O)c(CCNC(C)=O)c2c1	7.91	1	7.92	0.9
COc1ccc2[nH]c(C(=O)OCCCOC(=O)c3[nH]c4ccc(OC)cc4c3CCNC(C)=O)c(CCNC(C)=O)c2c1	9.5	0.77	14.3	0.8
COc1ccc2[nH]c(C(=O)OCCCCCCCCCCCCOC(=O)c3[nH]c4ccc(OC)cc4c3CCNC(C)=O)c(CCNC(C)=O)c2c1	25.4	0.72	44	0.64
COc1ccc2[nH]cc(CCNC(=O)CCCCCCCCC(=O)NCCc3c[nH]c4ccc(OC)cc34)c2c1	387	0.81	573	0.79
COc1ccc2[nH]c(C(=O)OCCCCCCCCCOC(=O)c3ccccc3)c(CCNC(C)=O)c2c1	83	0.75	20	0.38
COc1ccc2[nH]c(C(=O)OCCCCCCCOC(=O)c3[nH]c4ccc(OC)cc4c3CCNC(C)=O)c(CCNC(C)=O)c2c1	215	0.35	65	0.08
COc1ccc2[nH]cc(CCNC(=O)CCCCCC(=O)NCCc3c[nH]c4ccc(OC)cc34)c2c1	6470	0.35	7290	0.26
COc1ccc2[nH]c(C(=O)OCCCCCCCCCOC(=O)c3[nH]c4ccc(OC)cc4c3CCNC(C)=O)c(CCNC(C)=O)c2c1	59.8	0.33	7.75	-0.17
COc1ccc2[nH]c(C(=O)OCCCCCOC(=O)c3[nH]c4ccc(OC)cc4c3CCNC(C)=O)c(CCNC(C)=O)c2c1	20.1	1	62.4	0.93
COc1ccc2[nH]c(C(=O)OCCCCCCCCCCOC(=O)c3[nH]c4ccc(OC)cc4c3CCNC(C)=O)c(CCNC(C)=O)c2c1	24.2	0.79	15.4	0.65
